Measurements as given in ChEMBL document CHEMBL5113457, “Withaferin A, a polyfunctional pharmacophore that includes covalent engagement of IPO5, is an inhibitor of influenza A replication” (Bioorg Med Chem, 2022).
Activity calls are given as the source filed them. The rule behind the calls is not given here.

How the values were obtained:
[1] = tested on: A549; test: Cytotoxicity against human A549 cells assessed as reduction in cell viability at 1 uM for 10 hrs by Hoechst 33342 staining based fluorescence microscopy; assay type: toxicity; settings: a549, 10 h
[2] = target: T1, Importin-5 (Homo sapiens) (UniProt O00410); test: Competitive binding affinity to human IPO5 in human PC-3 cell lysate at 10 uM for 30 mins followed by GOYA-P treatment for 30 mins by DTB-Cy3 dye based SDS-PAGE analysis; assay type: subcellular; settings: time 60.0 min
T1 sequence (whole entry): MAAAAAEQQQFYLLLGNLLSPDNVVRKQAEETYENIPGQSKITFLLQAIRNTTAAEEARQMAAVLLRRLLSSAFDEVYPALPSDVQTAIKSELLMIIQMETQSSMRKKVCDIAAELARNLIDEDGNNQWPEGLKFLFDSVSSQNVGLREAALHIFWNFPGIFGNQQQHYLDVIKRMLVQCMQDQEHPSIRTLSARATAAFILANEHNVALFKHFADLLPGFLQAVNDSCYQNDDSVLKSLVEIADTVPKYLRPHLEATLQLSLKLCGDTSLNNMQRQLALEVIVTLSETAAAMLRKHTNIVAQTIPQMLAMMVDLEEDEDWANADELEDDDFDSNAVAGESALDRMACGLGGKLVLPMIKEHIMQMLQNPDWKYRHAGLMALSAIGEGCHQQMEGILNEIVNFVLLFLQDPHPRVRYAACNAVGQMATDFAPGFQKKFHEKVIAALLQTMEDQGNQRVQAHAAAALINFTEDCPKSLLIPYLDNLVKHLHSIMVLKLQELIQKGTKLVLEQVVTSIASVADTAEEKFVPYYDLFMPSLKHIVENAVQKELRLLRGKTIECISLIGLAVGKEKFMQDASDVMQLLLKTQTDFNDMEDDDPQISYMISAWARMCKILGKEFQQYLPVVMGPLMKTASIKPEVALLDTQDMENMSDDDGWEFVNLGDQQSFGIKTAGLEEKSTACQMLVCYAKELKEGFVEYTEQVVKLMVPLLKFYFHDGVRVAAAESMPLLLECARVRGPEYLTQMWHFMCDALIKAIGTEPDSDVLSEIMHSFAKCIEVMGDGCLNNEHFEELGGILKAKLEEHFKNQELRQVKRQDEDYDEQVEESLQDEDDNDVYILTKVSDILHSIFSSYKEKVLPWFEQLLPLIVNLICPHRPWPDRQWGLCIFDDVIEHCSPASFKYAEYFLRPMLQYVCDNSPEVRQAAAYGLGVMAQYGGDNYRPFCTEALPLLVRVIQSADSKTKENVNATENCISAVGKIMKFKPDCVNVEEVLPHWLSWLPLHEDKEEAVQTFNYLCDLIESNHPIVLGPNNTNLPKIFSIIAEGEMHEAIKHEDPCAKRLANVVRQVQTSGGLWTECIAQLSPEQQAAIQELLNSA

[3] = tested on: Influenza A virus; test: Antiviral activity against Influenza A virus strain A/Netherlands/604/2009 infected in human A549 cells assessed as reduction in influenza virus nucleoprotein production at 1 to 10 uM preincubated for 40 mins followed by virus infection and measured after 4 to 6 hrs by Western blot analysis; assay type: functional, organism-based; settings: dose 1-10 µM, time 280-400 min
[4] = tested on: Influenza A virus; test: Antiviral activity against drug treated Influenza A virus strain A/Netherlands/604/2009 cell lysate infected in dog MDCK cells assessed as reduction in viral replication at 500 nM and measured after 8 hr by crystal violet staining based plaque assay; assay type: functional, organism-based
[5] = target: Vimentin (Homo sapiens) (UniProt P08670); test: Competitive binding affinity to human Vimentin in human PC-3 cell lysate at 10 uM for 30 mins followed by WA-P1 treatment for 30 mins by SDS gel Cy3 fluorescence based MS/MS analysis; assay type: subcellular; settings: time 60.0 min
Sequence of Vimentin (Homo sapiens) (P08670 whole entry): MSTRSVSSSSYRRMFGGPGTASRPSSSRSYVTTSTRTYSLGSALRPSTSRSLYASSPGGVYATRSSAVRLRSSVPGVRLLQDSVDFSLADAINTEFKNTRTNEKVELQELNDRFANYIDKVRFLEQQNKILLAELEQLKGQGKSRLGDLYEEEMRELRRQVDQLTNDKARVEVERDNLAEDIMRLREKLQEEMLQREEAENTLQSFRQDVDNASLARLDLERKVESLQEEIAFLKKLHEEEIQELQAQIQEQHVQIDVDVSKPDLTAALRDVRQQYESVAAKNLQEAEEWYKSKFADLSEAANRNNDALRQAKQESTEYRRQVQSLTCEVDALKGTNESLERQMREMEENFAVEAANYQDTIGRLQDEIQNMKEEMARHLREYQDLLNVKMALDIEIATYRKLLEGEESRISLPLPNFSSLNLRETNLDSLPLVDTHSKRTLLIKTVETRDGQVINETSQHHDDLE

[6] = tested on: Influenza A virus; test: Antiviral activity against Influenza A virus strain A/Netherlands/604/2009 infected in human A549 cells assessed as reduction in influenza virus nucleoprotein production at 2.5 uM preincubated for 40 mins followed by virus infection and measured after 4 to 6 hrs by Western blot analysis; assay type: functional, organism-based; settings: time 280-400 min
[7] = target: T1, Importin-5 (Homo sapiens); test: Competitive binding affinity to human IPO5 in human PC-3 cell lysate at 10 uM for 30 mins followed by GOYA-P treatment for 30 mins by DTB-Cy3 dye based pull-down assay; assay type: subcellular; settings: time 60.0 min
[8] = target: Annexin A2 (Homo sapiens) (UniProt P07355); test: Competitive binding affinity to human annexin A2 in human A549 cell lysate at 10 uM for 30 mins followed by GOYA-P treatment for 30 mins by DTB-Cy3 dye based SDS-PAGE analysis; assay type: subcellular; settings: time 60.0 min
Sequence of Annexin A2 (Homo sapiens) (P07355 whole entry): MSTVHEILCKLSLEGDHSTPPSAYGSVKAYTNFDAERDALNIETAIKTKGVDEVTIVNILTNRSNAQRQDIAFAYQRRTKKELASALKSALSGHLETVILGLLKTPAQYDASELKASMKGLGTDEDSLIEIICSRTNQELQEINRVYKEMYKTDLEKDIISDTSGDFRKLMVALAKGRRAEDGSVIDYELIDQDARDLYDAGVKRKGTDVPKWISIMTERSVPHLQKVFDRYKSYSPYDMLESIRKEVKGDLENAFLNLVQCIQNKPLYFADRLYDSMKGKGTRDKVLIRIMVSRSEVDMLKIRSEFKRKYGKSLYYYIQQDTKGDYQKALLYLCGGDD

[9] = target: T1, Importin-5 (Homo sapiens); test: Binding affinity to human IPO5 in human PC-3 cell lysate assessed as inhibition of IPO5 interaction with NLS PB1 cargo protein from Influenza A virus at 10 uM for 30 mins by pull-down assay; assay type: subcellular
[10] = tested on: A549; test: Upregulation of HO-1 expression in human A549 cells at 1 uM for 2 to 6 hrs by western blot analysis; assay type: functional, cell-based; settings: time 2-6 hrs
[11] = tested on: Influenza A virus; test: Antiviral activity against drug treated Influenza A virus strain A/Netherlands/604/2009 cell lysate infected in dog MDCK cells assessed as reduction in viral replication at 1 uM and measured after 8 hr by crystal violet staining based plaque assay; assay type: functional, organism-based
[12] = target: Vimentin (Homo sapiens) (UniProt P08670); test: Competitive binding affinity to human Vimentin in human PC-3 cell lysate at 10 uM for 30 mins followed by WA-P2 treatment for 30 mins by SDS gel Cy3 fluorescence based MS/MS analysis; assay type: subcellular; settings: time 60.0 min
[13] = tested on: Influenza A virus; test: Antiviral activity against Influenza A virus strain A/Netherlands/604/2009 infected in human A549 cells assessed as reduction in influenza virus nucleoprotein production at 1 uM preincubated for 40 mins followed by virus infection and measured after 4 to 6 hrs by Western blot analysis; assay type: functional, organism-based; settings: time 280-400 min
[14] = target: Heat shock protein HSP90 (Homo sapiens) (UniProt P07900+P08238); test: Binding affinity to recombinant human HSP90 at 10 uM by Western blotting based pull-down assay; assay type: protein assay
[15] = target: T1, Importin-5 (Homo sapiens); test: Binding affinity to human IPO5 in human PC-3 cell lysate incubated for 30 mins by DTB-Cy3 dye based pull down analysis; assay type: subcellular

Structure (SMILES) | Activity [1] | Activity [2] | Activity [4] | Activity [8] | Activity [10] | Activity [11] | Activity [14] | also measured
CC1=C(CO)C(=O)O[C@@H]([C@@H](C)[C@H]2CC[C@H]3[C@@H]4C[C@H]5O[C@]56[C@@H](O)C=CC(=O)[C@]6(CO)[C@H]4CC[C@]23C)C1 | Non-Toxic | Active | Active | Active | Active | Active |  | Activity [3]: Active; Activity [5]: Active; Activity [6]: Active; Activity [7]: Active; Activity [9]: Active; Activity [12]: Active; Activity [13]: Active
COC(=O)[C@]12CCC(C)(C)C[C@@H]1[C@H]1C(=O)C=C3[C@@]4(C)C=C(C#N)C(=O)C(C)(C)[C@@H]4CC[C@@]3(C)[C@]1(C)CC2 |  |  |  |  | Active | Active |  | 
C#CCCC(=O)O[C@H]1C=CC(=O)[C@]2(C)[C@H]3CC[C@]4(C)[C@@H]([C@H](C)C5CC(C)=C(CO)C(=O)O5)CC[C@H]4[C@@H]3C[C@H]3O[C@]132 (stereo partly drawn) | Non-Toxic |  | Active |  |  | Active | Active | 
C#CCOCC(=C)C(=O)O[C@H]1C[C@@]2(C)OC(=CC2=O)/C(CO)=C\[C@H]2OC(=O)C(=C)[C@H]12 |  |  |  |  |  |  |  | Activity [15]: Active
C=C(C)C(=O)O[C@H]1C[C@@]2(C)OC(=CC2=O)/C(CO)=C\[C@H]2OC(=O)C(=C)[C@H]12 [GOIAZENSOLIDE] | Non-Toxic | Active |  | Active |  | Active |  | 
C#CCCC(=O)OCC1=C(C)CC([C@@H](C)[C@H]2CC[C@H]3[C@@H]4C[C@H]5O[C@]56[C@@H](O)C=CC(=O)[C@]6(C)[C@H]4CC[C@]23C)OC1=O (stereo partly drawn) | Non-Toxic |  | Active |  |  | Active | Active | 
